ChEMBL document CHEMBL1240332, “Mechanisms, biology and inhibitors of deubiquitinating enzymes” (Nat Chem Biol, 2007)
pIC50, pKi: −log10 of the molar value. Each block holds one compound with its values, some of them ahead of it.

What was measured:
Caspase-3 = target: T1, Caspase-3 (Homo sapiens, UniProt P42574); assay: Inhibition of caspase3
T1 sequence (P42574 whole entry): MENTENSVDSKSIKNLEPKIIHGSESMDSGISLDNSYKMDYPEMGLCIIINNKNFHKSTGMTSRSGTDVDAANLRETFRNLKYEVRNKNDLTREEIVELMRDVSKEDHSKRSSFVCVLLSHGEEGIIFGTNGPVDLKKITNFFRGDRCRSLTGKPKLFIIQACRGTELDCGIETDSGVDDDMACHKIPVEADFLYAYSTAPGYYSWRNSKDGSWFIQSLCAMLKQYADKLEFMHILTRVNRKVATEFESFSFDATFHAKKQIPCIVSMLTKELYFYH

[1] = target: T2, Ubiquitin carboxyl-terminal hydrolase 5 (Homo sapiens, UniProt P45974); assay: Inhibition of isopeptidase T
T2 sequence (P45974 whole entry): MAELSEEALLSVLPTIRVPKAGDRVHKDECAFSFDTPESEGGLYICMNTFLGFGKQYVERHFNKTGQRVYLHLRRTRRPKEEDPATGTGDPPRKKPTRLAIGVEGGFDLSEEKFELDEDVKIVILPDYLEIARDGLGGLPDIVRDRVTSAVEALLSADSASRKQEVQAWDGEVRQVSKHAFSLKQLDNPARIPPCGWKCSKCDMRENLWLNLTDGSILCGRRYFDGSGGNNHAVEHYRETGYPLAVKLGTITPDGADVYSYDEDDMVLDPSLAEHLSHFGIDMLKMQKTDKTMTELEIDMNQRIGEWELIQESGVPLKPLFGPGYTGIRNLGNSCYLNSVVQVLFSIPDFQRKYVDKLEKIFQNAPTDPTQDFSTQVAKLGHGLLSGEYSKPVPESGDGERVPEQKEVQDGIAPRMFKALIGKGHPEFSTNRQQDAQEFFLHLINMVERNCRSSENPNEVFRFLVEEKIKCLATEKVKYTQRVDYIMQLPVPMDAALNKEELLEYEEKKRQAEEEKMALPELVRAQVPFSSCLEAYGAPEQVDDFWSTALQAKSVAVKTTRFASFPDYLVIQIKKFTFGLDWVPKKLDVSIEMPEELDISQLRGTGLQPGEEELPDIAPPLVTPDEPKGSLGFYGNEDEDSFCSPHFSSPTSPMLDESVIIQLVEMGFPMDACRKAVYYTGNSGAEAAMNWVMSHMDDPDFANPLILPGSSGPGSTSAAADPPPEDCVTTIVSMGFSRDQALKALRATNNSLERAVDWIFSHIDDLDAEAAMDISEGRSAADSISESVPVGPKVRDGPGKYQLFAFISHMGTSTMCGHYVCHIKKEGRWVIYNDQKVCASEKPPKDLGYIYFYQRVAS

[2] = target: T3, Protein-glutamine gamma-glutamyltransferase (Homo sapiens, UniProt P21980); assay: Inhibition of tissue transglutaminase
T3 sequence (P21980 whole entry): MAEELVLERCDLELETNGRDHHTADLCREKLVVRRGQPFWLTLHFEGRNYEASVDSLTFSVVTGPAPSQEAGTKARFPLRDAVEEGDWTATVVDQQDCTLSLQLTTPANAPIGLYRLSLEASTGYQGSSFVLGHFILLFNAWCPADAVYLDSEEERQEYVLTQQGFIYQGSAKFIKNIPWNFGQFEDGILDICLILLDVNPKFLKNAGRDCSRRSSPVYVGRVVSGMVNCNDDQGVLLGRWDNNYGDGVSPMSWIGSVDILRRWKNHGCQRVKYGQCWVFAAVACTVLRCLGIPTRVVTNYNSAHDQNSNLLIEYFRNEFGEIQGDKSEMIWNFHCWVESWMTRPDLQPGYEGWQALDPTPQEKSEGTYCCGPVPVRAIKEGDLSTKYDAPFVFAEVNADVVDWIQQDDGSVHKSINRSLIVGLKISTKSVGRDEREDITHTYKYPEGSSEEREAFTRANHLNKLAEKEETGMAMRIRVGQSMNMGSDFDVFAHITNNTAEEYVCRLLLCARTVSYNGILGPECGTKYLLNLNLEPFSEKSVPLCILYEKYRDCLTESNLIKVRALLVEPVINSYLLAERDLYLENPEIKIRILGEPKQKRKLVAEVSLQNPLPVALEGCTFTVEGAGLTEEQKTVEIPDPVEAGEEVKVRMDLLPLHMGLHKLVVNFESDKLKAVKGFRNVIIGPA

[3] = target: T4, Ubiquitin carboxyl-terminal hydrolase isozyme L3 (Homo sapiens, UniProt P15374); assay: Inhibition of UCHL3
T4 sequence (P15374 whole entry): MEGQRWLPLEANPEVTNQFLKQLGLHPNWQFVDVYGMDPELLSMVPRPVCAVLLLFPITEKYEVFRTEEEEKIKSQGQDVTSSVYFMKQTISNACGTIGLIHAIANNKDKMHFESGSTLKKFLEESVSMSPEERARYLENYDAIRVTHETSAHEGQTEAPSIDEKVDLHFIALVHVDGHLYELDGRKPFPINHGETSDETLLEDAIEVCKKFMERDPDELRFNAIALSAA

[4] = target: T5, Ubiquitin carboxyl-terminal hydrolase isozyme L1 (Homo sapiens, UniProt P09936); assay: Inhibition of UCHL1 in human H1299 cells; assay type: cell-based
T5 sequence (P09936 whole entry): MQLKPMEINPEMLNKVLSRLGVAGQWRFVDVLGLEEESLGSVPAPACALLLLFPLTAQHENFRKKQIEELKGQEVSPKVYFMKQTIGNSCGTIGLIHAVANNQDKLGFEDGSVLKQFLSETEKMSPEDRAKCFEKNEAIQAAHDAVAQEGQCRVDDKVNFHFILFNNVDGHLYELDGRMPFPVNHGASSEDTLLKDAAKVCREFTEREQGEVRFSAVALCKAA

[5] = target: T4, Ubiquitin carboxyl-terminal hydrolase isozyme L3; assay: Inhibition of UCHL3 in human H1299 cells; assay type: cell-based

Compound: Nc1c(C(=O)c2ccccc2)sc2[nH]c(=O)c(C(=O)O)cc12
pKi (Caspase-3): < 4.00
pKi [1]: < 4.00
pKi [2]: < 4.00
pKi [3]: < 4.00

Compound: O=C1CC(=O)c2c(Cl)c(Cl)c(Cl)c(Cl)c21
pIC50 [4]: 4.12
pIC50 [5]: 6.22

Compound: CC1=CC(=O)c2ccccc2C1=O [MENADIONE]
pIC50 [4]: 3.54
pIC50 [5]: 4.15

Next, values leading:

pIC50 [4]: 6.09
pIC50 [5]: 4.77
Compound: CC(=O)O/N=C1/C(=O)N(Cc2ccc(Cl)c(Cl)c2)c2ccc(Br)cc21

pIC50 [4]: 6.06
pIC50 [5]: 4.60
Compound: CC(=O)O/N=C1/C(=O)N(Cc2cc(Cl)ccc2Cl)c2ccc(Br)cc21

pIC50 [4]: 6.03
pIC50 [5]: 4.64
Compound: CC(=O)O/N=C1/C(=O)N(Cc2ccc(Cl)c(Cl)c2)c2ccc(I)cc21

pIC50 [4]: 3.90
pIC50 [5]: 4.33
Compound: CCCCc1ccc(-c2n[nH]c(=S)n2-c2ccc(C(C)C)cc2)cc1
